Measurements: ChEMBL document CHEMBL1201862, “PubChem BioAssay data set” (2004)
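Tested at 5 concentrations; 48 h exposure; 96-well plates; endpoints linearly interpolated, else capped at highest concentration. GI50 is the concentration that inhibits growth by half.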 Calls of active or inactive are those of the source. Rule as the data show it: active = GI50 up to about 1.1 µM and inactive = higher.

Columns and labels:
Assay in all cases: DTP human tumour cell line panel, 48 h
LOX IMVI = test system: LOX IMVI
CAKI-1 = test system: CAKI-1
HCT-15 = test system: HCT-15
OVCAR-5 = test system: OVCAR-5
HL-60 = test system: HL-60
MDA-MB-435 = test system: MDA-MB-435
MCF7 = test system: MCF7
786-0 = test system: 786-0
SF-268 = test system: SF-268
HCT-116 = test system: HCT-116
SK-MEL-2 = test system: SK-MEL-2
IGROV-1 = test system: IGROV-1
EKVX = test system: EKVX
SNB-19 = test system: SNB-19
SK-OV-3 = test system: SK-OV-3
SW-620 = test system: SW-620
ACHN = test system: ACHN
UO-31 = test system: UO-31
NCI-H522 = test system: NCI-H522
MOLT-4 = test system: MOLT-4
KM12 = test system: KM12
BT-549 = test system: BT-549
SK-MEL-5 = test system: SK-MEL-5
PC-3 = test system: PC-3
OVCAR-3 = test system: OVCAR-3
DU-145 = test system: DU-145
RXF 393 = test system: RXF 393
M14 = test system: M14
HT-29 = test system: HT-29
OVCAR-8 = test system: OVCAR-8
A549 = test system: A549
HCC 2998 = test system: HCC 2998
SN12C = test system: SN12C
SF-295 = test system: SF-295
T47D = test system: T47D
TK-10 = test system: TK-10
CCRF-CEM = test system: CCRF-CEM
SF-539 = test system: SF-539
NCI-H460 = test system: NCI-H460
COLO 205 = test system: COLO 205
Hs-578T = test system: Hs-578T
Malme-3M = test system: Malme-3M
NCI-H226 = test system: NCI-H226
A498 = test system: A498
OVCAR-4 = test system: OVCAR-4
SK-MEL-28 = test system: SK-MEL-28
NCI-H23 = test system: NCI-H23
U-251 = test system: U-251
MDA-N = test system: MDA-N
NCI/ADR-RES = test system: NCI/ADR-RES
HOP-92 = test system: HOP-92
MDA-MB-231 = test system: MDA-MB-231
UACC-62 = test system: UACC-62
UACC-257 = test system: UACC-257
K562 = test system: K562
RPMI-8226 = test system: RPMI-8226
SNB-75 = test system: SNB-75
HOP-62 = test system: HOP-62

## O=C(OCc1ccc([N+](=O)[O-])cc1)N1c2ccccc2[C@@]23O[C@]24CCC[C@H]3C#C/C=C\C#C[C@H]14
LOX IMVI
  GI50: 56.5 µM (inactive)
CAKI-1
  GI50: 37.4 µM (inactive)
HCT-15
  GI50: 89.1 µM
OVCAR-5
  GI50: > 100 µM (inactive)
HL-60
  GI50: 25 µM (inactive)
MDA-MB-435
  GI50: > 100 µM (inactive)
MCF7
  GI50: 8.18 µM (inactive)
786-0
  GI50: > 100 µM (inactive)
SF-268
  GI50: 38.6 µM (inactive)
HCT-116
  GI50: > 100 µM (inactive)
SK-MEL-2
  GI50: > 100 µM (inactive)
IGROV-1
  GI50: > 100 µM (inactive)
EKVX
  GI50: > 100 µM (inactive)
SNB-19
  GI50: > 100 µM (inactive)
SK-OV-3
  GI50: > 100 µM (inactive)
SW-620
  GI50: 72.9 µM (inactive)
ACHN
  GI50: 78.9 µM (inactive)
UO-31
  GI50: > 100 µM (inactive)
NCI-H522
  GI50: 25.8 µM (inactive)
MOLT-4
  GI50: 3.27 µM (inactive)
KM12
  GI50: > 100 µM (inactive)
BT-549
  GI50: > 100 µM (inactive)
SK-MEL-5
  GI50: > 100 µM (inactive)
PC-3
  GI50: > 100 µM (inactive)
OVCAR-3
  GI50: > 100 µM (inactive)
DU-145
  GI50: > 100 µM (inactive)
RXF 393
  GI50: > 100 µM (inactive)
M14
  GI50: > 100 µM (inactive)
HT-29
  GI50: > 100 µM (inactive)
OVCAR-8
  GI50: > 100 µM (inactive)
A549
  GI50: 8.77 µM (inactive)
HCC 2998
  GI50: > 100 µM (inactive)
SN12C
  GI50: > 100 µM (inactive)
SF-295
  GI50: > 100 µM (inactive)
T47D
  GI50: > 100 µM (inactive)
TK-10
  GI50: > 100 µM (inactive)
CCRF-CEM
  GI50: 12.9 µM (inactive)
SF-539
  GI50: > 100 µM (inactive)
NCI-H460
  GI50: 1.17 µM (inactive)
COLO 205
  GI50: 65.6 µM (inactive)
Hs-578T
  GI50: 58.9 µM (inactive)
Malme-3M
  GI50: 19.6 µM (inactive)
NCI-H226
  GI50: > 100 µM (inactive)
A498
  GI50: > 100 µM (inactive)
OVCAR-4
  GI50: > 100 µM (inactive)
SK-MEL-28
  GI50: > 100 µM (inactive)
NCI-H23
  GI50: > 100 µM (inactive)
U-251
  GI50: > 100 µM (inactive)
MDA-N
  GI50: > 100 µM (inactive)
NCI/ADR-RES
  GI50: 43.6 µM (inactive)
HOP-92
  GI50: > 100 µM (inactive)
MDA-MB-231
  GI50: > 100 µM (inactive)
UACC-62
  GI50: > 100 µM (inactive)
UACC-257
  GI50: > 100 µM (inactive)
K562
  GI50: 88.1 µM (inactive)

## CCCSC1=N/C(=C\c2ccco2)C(=O)N1
LOX IMVI
  GI50: > 100 µM (inactive)
CAKI-1
  GI50: > 100 µM (inactive)
HCT-15
  GI50: > 100 µM
OVCAR-5
  GI50: > 100 µM (inactive)
MDA-MB-435
  GI50: > 100 µM (inactive)
MCF7
  GI50: 36 µM (inactive)
786-0
  GI50: > 100 µM (inactive)
SF-268
  GI50: > 100 µM (inactive)
HCT-116
  GI50: > 100 µM (inactive)
SK-MEL-2
  GI50: > 100 µM (inactive)
IGROV-1
  GI50: > 100 µM (inactive)
EKVX
  GI50: 67.3 µM (inactive)
SNB-19
  GI50: > 100 µM (inactive)
SK-OV-3
  GI50: > 100 µM (inactive)
SW-620
  GI50: > 100 µM (inactive)
ACHN
  GI50: > 100 µM (inactive)
UO-31
  GI50: > 100 µM (inactive)
NCI-H522
  GI50: > 100 µM (inactive)
MOLT-4
  GI50: > 100 µM (inactive)
KM12
  GI50: > 100 µM (inactive)
RPMI-8226
  GI50: > 100 µM (inactive)
BT-549
  GI50: > 100 µM (inactive)
SNB-75
  GI50: 97.7 µM (inactive)
PC-3
  GI50: > 100 µM (inactive)
OVCAR-3
  GI50: > 100 µM (inactive)
DU-145
  GI50: > 100 µM (inactive)
RXF 393
  GI50: > 100 µM (inactive)
M14
  GI50: > 100 µM (inactive)
HT-29
  GI50: > 100 µM (inactive)
OVCAR-8
  GI50: > 100 µM (inactive)
A549
  GI50: > 100 µM (inactive)
HCC 2998
  GI50: > 100 µM (inactive)
SN12C
  GI50: > 100 µM (inactive)
SF-295
  GI50: > 100 µM (inactive)
T47D
  GI50: 46.2 µM (inactive)
TK-10
  GI50: > 100 µM (inactive)
SF-539
  GI50: > 100 µM (inactive)
NCI-H460
  GI50: > 100 µM (inactive)
COLO 205
  GI50: > 100 µM (inactive)
Hs-578T
  GI50: > 100 µM (inactive)
Malme-3M
  GI50: > 100 µM (inactive)
NCI-H226
  GI50: > 100 µM (inactive)
A498
  GI50: 89.7 µM (inactive)
OVCAR-4
  GI50: > 100 µM (inactive)
SK-MEL-28
  GI50: > 100 µM (inactive)
HOP-62
  GI50: > 100 µM (inactive)
NCI-H23
  GI50: > 100 µM (inactive)
U-251
  GI50: > 100 µM (inactive)
MDA-N
  GI50: > 100 µM (inactive)
NCI/ADR-RES
  GI50: > 100 µM (inactive)
HOP-92
  GI50: > 100 µM (inactive)
MDA-MB-231
  GI50: > 100 µM (inactive)
UACC-62
  GI50: > 100 µM (inactive)
UACC-257
  GI50: > 100 µM (inactive)
